# Reference: article PMC4102924 (Science translational medicine, 2013)
# Target: PDK2 (pyruvate dehydrogenase kinase 2) (Homo sapiens, UniProt Q15119)
# Assay: radiometric kinase assay with recombinant PDK2
# Format: biochemical
smiles,measurement,value
O=C(O)CCCc1ccccc1 [phenylbutyrate],Ki,330 ± 80 µM
